Assay results as given in PubChem BioAssay AID1259407 (Chemical Carcinogenesis Research Information System (CCRIS), 2018).
Calls of active or inactive are those of the source. No rule for the calls is given here.

Tested on: CCRIS mutagenicity, Ames/micronucleus/aberration tests
Assay: CCRIS mutagenicity studies
[1] = Test System: AMES SALMONELLA TYPHIMURIUM, Strain/Indicator: TA98, Metabolic Activation: NONE, Method: PREINCUBATION
[2] = Test System: AMES SALMONELLA TYPHIMURIUM, Strain/Indicator: TA100, Metabolic Activation: NONE, Method: PREINCUBATION
[3] = Test System: AMES SALMONELLA TYPHIMURIUM, Strain/Indicator: TA98, Metabolic Activation: RAT, LIVER, S-9, AROCLOR 1254, Method: STANDARD PLATE
[4] = Test System: AMES SALMONELLA TYPHIMURIUM, Strain/Indicator: TA100, Metabolic Activation: RAT, LIVER, S-9, AROCLOR 1254, Method: STANDARD PLATE
[5] = Test System: AMES SALMONELLA TYPHIMURIUM, Strain/Indicator: TA1537, Metabolic Activation: NONE, Method: STANDARD PLATE
[6] = Test System: AMES SALMONELLA TYPHIMURIUM, Strain/Indicator: TA102, Metabolic Activation: NONE, Method: PREINCUBATION
[7] = Test System: AMES SALMONELLA TYPHIMURIUM, Strain/Indicator: TA1535, Metabolic Activation: NONE, Method: PREINCUBATION
[8] = Test System: AMES SALMONELLA TYPHIMURIUM, Strain/Indicator: TA1537, Metabolic Activation: NONE, Method: PREINCUBATION
[9] = Test System: AMES SALMONELLA TYPHIMURIUM, Strain/Indicator: TA98, Metabolic Activation: RAT, LIVER, S-9, AROCLOR 1254, Method: PREINCUBATION
[10] = Test System: AMES SALMONELLA TYPHIMURIUM, Strain/Indicator: TA100, Metabolic Activation: RAT, LIVER, S-9, AROCLOR 1254, Method: PREINCUBATION

## O=[N+]([O-])c1ccccc1Br
[1]
  mutagenic call: inactive; negative
[2]
  mutagenic call: inactive; negative
Test System: AMES SALMONELLA TYPHIMURIUM, Strain/Indicator: TA100, Metabolic Activation: RAT, LIVER, S-9, KANECHLOR 500, Method: PREINCUBATION
  mutagenic call: active; positive

## O=C(Nc1ccc2c(O)c(N=Nc3ccc(N=Nc4ccc(S(=O)(=O)O)cc4)cc3)c(S(=O)(=O)O)cc2c1)c1ccccc1
Test System: AMES SALMONELLA TYPHIMURIUM, Strain/Indicator: TA98, Metabolic Activation: NONE, Method: STANDARD PLATE
  mutagenic call: inactive; negative
[3]
  mutagenic call: inactive; negative
Test System: AMES SALMONELLA TYPHIMURIUM, Strain/Indicator: TA100, Metabolic Activation: NONE, Method: STANDARD PLATE
  mutagenic call: inactive; negative
[4]
  mutagenic call: inactive; negative
Test System: AMES SALMONELLA TYPHIMURIUM, Strain/Indicator: TA1535, Metabolic Activation: NONE, Method: STANDARD PLATE
  mutagenic call: inactive; negative
Test System: AMES SALMONELLA TYPHIMURIUM, Strain/Indicator: TA1535, Metabolic Activation: RAT, LIVER, S-9, AROCLOR 1254, Method: STANDARD PLATE
  mutagenic call: inactive; negative
[5]
  mutagenic call: inactive; negative
Test System: AMES SALMONELLA TYPHIMURIUM, Strain/Indicator: TA1537, Metabolic Activation: RAT, LIVER, S-9, AROCLOR 1254, Method: STANDARD PLATE
  mutagenic call: inactive; negative
Test System: AMES SALMONELLA TYPHIMURIUM, Strain/Indicator: TA1538, Metabolic Activation: NONE, Method: STANDARD PLATE
  mutagenic call: inactive; negative
Test System: AMES SALMONELLA TYPHIMURIUM, Strain/Indicator: TA1538, Metabolic Activation: RAT, LIVER, S-9, AROCLOR 1254, Method: STANDARD PLATE
  mutagenic call: inactive; negative

## CS
[1]
  mutagenic call: inactive; negative
Test System: AMES SALMONELLA TYPHIMURIUM, Strain/Indicator: TA98, Metabolic Activation: RAT, LIVER, S-9, SODIUM PHENOBARBITAL AND 5,6-BENZOFLAVONE, Method: PREINCUBATION
  mutagenic call: inactive; negative
[2]
  mutagenic call: inactive; negative
Test System: AMES SALMONELLA TYPHIMURIUM, Strain/Indicator: TA100, Metabolic Activation: RAT, LIVER, S-9, SODIUM PHENOBARBITAL AND 5,6-BENZOFLAVONE, Method: PREINCUBATION
  mutagenic call: inactive; negative
[6]
  mutagenic call: inactive; negative
Test System: AMES SALMONELLA TYPHIMURIUM, Strain/Indicator: TA102, Metabolic Activation: RAT, LIVER, S-9, SODIUM PHENOBARBITAL AND 5,6-BENZOFLAVONE, Method: PREINCUBATION
  mutagenic call: inactive; negative
Test System: AMES SALMONELLA TYPHIMURIUM, Strain/Indicator: TA104, Metabolic Activation: NONE, Method: PREINCUBATION
  mutagenic call: inactive; negative
Test System: AMES SALMONELLA TYPHIMURIUM, Strain/Indicator: TA104, Metabolic Activation: RAT, LIVER, S-9, SODIUM PHENOBARBITAL AND 5,6-BENZOFLAVONE, Method: PREINCUBATION
  mutagenic call: inactive; negative
[7]
  mutagenic call: inactive; negative
Test System: AMES SALMONELLA TYPHIMURIUM, Strain/Indicator: TA1535, Metabolic Activation: RAT, LIVER, S-9, SODIUM PHENOBARBITAL AND 5,6-BENZOFLAVONE, Method: PREINCUBATION
  mutagenic call: inactive; negative
[8]
  mutagenic call: inactive; negative
Test System: AMES SALMONELLA TYPHIMURIUM, Strain/Indicator: TA1537, Metabolic Activation: RAT, LIVER, S-9, SODIUM PHENOBARBITAL AND 5,6-BENZOFLAVONE, Method: PREINCUBATION
  mutagenic call: inactive; negative
Test System: E. COLI, Strain/Indicator: WP2UVRA/PKM101, Metabolic Activation: NONE, Method: PREINCUBATION
  mutagenic call: inactive; negative
Test System: E. COLI, Strain/Indicator: WP2UVRA/PKM101, Metabolic Activation: RAT, LIVER, S-9, SODIUM PHENOBARBITAL AND 5,6-BENZOFLAVONE, Method: PREINCUBATION
  mutagenic call: inactive; negative
Test System: E. COLI, Strain/Indicator: WP2UVRA, Metabolic Activation: NONE, Method: PREINCUBATION
  mutagenic call: inactive; negative
Test System: E. COLI, Strain/Indicator: WP2UVRA, Metabolic Activation: RAT, LIVER, S-9, SODIUM PHENOBARBITAL AND 5,6-BENZOFLAVONE, Method: PREINCUBATION
  mutagenic call: inactive; negative

## COc1cc(O)c2c(c1)C(=O)c1c(O)c(C)cc(O)c1C2=O
[5]
  mutagenic call: inactive; negative
Test System: AMES SALMONELLA TYPHIMURIUM, Strain/Indicator: TA1537, Metabolic Activation: S-9, Method: STANDARD PLATE
  mutagenic call: active; positive

## Cc1ccc2c(c1)Cc1cc(C)ccc1-2
[3]
  mutagenic call: inactive; negative
[4]
  mutagenic call: inactive; negative

## NC(=O)N(CCO)N=O
Test System: E. COLI B, Strain/Indicator: H/R30R, Metabolic Activation: NONE
  mutagenic call: active; positive
Test System: E. COLI B, Strain/Indicator: HS30R, Metabolic Activation: NONE
  mutagenic call: active; positive

## Cc1cnccn1
[1]
  mutagenic call: inactive; negative
[9]
  mutagenic call: inactive; negative
[2]
  mutagenic call: inactive; negative
[10]
  mutagenic call: inactive; negative
[6]
  mutagenic call: inactive; negative
Test System: AMES SALMONELLA TYPHIMURIUM, Strain/Indicator: TA102, Metabolic Activation: RAT, LIVER, S-9, AROCLOR 1254, Method: PREINCUBATION
  mutagenic call: inactive; negative

## Cc1c2cccc(F)c2c(C)c2c1ccc1ccccc12
Test System: CHINESE HAMSTER V-79, Strain/Indicator: V-79/OUABAIN, Metabolic Activation: CELL-MEDIATED, Method: STANDARD PLATE
  mutagenic call: active; positive

## Cc1ccc(C2CO2)cc1C (stereo unspecified)
Test System: E. COLI, Strain/Indicator: WP2, Metabolic Activation: NONE, Method: STANDARD PLATE
  mutagenic call: active; positive
Test System: E. COLI, Strain/Indicator: WP2 UVRA, Metabolic Activation: NONE, Method: STANDARD PLATE
  mutagenic call: active; positive

## CNc1ccc2ncc(C)nc2c1N
[1]
  mutagenic call: inactive; negative
[9]
  mutagenic call: inactive; negative
[2]
  mutagenic call: inactive; negative
[10]
  mutagenic call: inactive; negative

## CCCCOC(=O)c1ccccc1C(=O)OC1CCCCC1
Test System: AMES SALMONELLA TYPHIMURIUM, Strain/Indicator: TA98, Metabolic Activation: HAMSTER, LIVER, S-9, AROCLOR 1254 (10%), Method: PREINCUBATION
  mutagenic call: inactive; negative
[1]
  mutagenic call: inactive; negative
Test System: AMES SALMONELLA TYPHIMURIUM, Strain/Indicator: TA98, Metabolic Activation: RAT, LIVER, S-9, AROCLOR 1254 (10%), Method: PREINCUBATION
  mutagenic call: inactive; negative
Test System: AMES SALMONELLA TYPHIMURIUM, Strain/Indicator: TA100, Metabolic Activation: HAMSTER, LIVER, S-9, AROCLOR 1254 (10%), Method: PREINCUBATION
  mutagenic call: inactive; negative
[2]
  mutagenic call: inactive; negative
Test System: AMES SALMONELLA TYPHIMURIUM, Strain/Indicator: TA100, Metabolic Activation: RAT, LIVER, S-9, AROCLOR 1254 (10%), Method: PREINCUBATION
  mutagenic call: inactive; negative
Test System: AMES SALMONELLA TYPHIMURIUM, Strain/Indicator: TA1535, Metabolic Activation: HAMSTER, LIVER, S-9, AROCLOR 1254 (10%), Method: PREINCUBATION
  mutagenic call: inactive; negative
[7]
  mutagenic call: inactive; negative
Test System: AMES SALMONELLA TYPHIMURIUM, Strain/Indicator: TA1535, Metabolic Activation: RAT, LIVER, S-9, AROCLOR 1254 (10%), Method: PREINCUBATION
  mutagenic call: inactive; negative
Test System: AMES SALMONELLA TYPHIMURIUM, Strain/Indicator: TA1537, Metabolic Activation: HAMSTER, LIVER, S-9, AROCLOR 1254 (10%), Method: PREINCUBATION
  mutagenic call: inactive; negative
[8]
  mutagenic call: inactive; negative
Test System: AMES SALMONELLA TYPHIMURIUM, Strain/Indicator: TA1537, Metabolic Activation: RAT, LIVER, S-9, AROCLOR 1254 (10%), Method: PREINCUBATION
  mutagenic call: inactive; negative

## CCC1(CC)C(=O)NC(=O)NC1=O
End Point: IN VITRO MICRONUCLEUS, Test System: CHL/IU CELLS, Metabolic Activation: NONE
  mutagenic call: active; positive
